Experimental data reported in US20260166065A1 (priority 2023, published 2026).

Molecular target: PA-IL (lectin A, Lec A) (Pseudomonas aeruginosa, UniProt Q05097)
Assay: Lectin histochemistry: D-galactose blocking of biotinylated PA-IL binding to human respiratory epithelia, in relation to storage time of the sugar solution
Conditions: for PA-IL lectin binding at the cilia of human respiratory epithelia in presence of D-galactose: 5 μg/ml PA-IL
Description: Tissue preparation and lectin histological staining has been described (Schreiber et al. (2014) Anticancer Res. 34 (12): 7045-53). Five μm thick sections of human airway epithelium were applied to Adhesion Micro Slides (Histo Bond®; Marienfeld GmbH, Lauda-Königshofen Germany). Slides were deparaffinized and rehydrated through a series of graded ethanol to distilled water. […] Deparaffinized sections were briefly incubated in lectin buffer (LB) consisting of tris-buffered saline (TBS contained Trizma Base, 50 mM Tris; Sigma, Steinheim, Germany), sodium chloride (150 mM; J. T. Baker, Deventer, the Netherlands) and hydrochloric acid (Merck, Darmstadt, Germany) in distilled water (adjusted to pH 7.6) with addition of 1% MgCl2 and 1% CaCl2) (Merck, Darmstadt Germany). Sections were then treated with 0.1% trypsin (Biochrom KG, Berlin, Germany) dissolved in LB and incubated for 10 min at 37° C. To stop the digestion of the sections with trypsin, the sections were washed in running tap water for 5 min. […] This step was followed by three washes (5 min each) in TBS. Afterwards the sections were incubated with alkaline phosphatase streptavidin complex (Vectastain® ABC-Kit; Vector Laboratories) in a humid chamber for 30 min. After final three rinsings (5 min each) in TBS, sections were transferred into the visualizing mixture containing naphthol-AS-biphosphate, hexatozised new fuchsin, dimethylformamide and tween 20 (all from Sigma-Aldrich Chemie, Darmstadt, Germany) applied in the dark for 20 min to visualize enzyme reactivity. To stop the enzyme reaction, the sections were washed in running tap water (7 min) and were then transferred into distilled water (2 min). Counterstaining was performed using Mayer's hemalum (Merck). The sections were dehydrated and subsequently covered using a resinous permanent mounting medium (Eukitt, Kindler GmbH, Freiburg, Germany). Slides were first evaluated using a ZEISS Axiophot 2 microscope (Carl Zeiss, Jena, Germany). Digital images were obtained with a ZEISS Axio Scan Z1 slide scanner equipped with a ZEISS EC Plan-Neofluar 20×/0.50 Pol M27 objective (Carl Zeiss, Jena, Germany) and a Hitachi HV-F20SCL camera with 1600×1200 pixels (Hitachi Kokusai Electric America Ltd., New York, USA). For image acquisition ZEISS ZEN 2.3 software was used (Carl Zeiss, Jena, Germany). Images were further processed with netScope Viewer software (Net-Base Software, Freiburg, Germany).
For the PA-IL blocking experiments, 10 μg/ml PA-IL solution dissolved in LB was incubated 1:1 with a freshly prepared D-galactose solution (Merck, Darmstadt) for 30 min resulting in a final 5 μg/ml PA-IL solution before applying the mixture to the sections. The final concentration of D-galactose in solution ranged from 0.3 mM to 0.0375 mM D-galactose.
To analyze the loss of D-galactose activity to block PA-IL tissue binding in relation to storage time in an aqueous solution, D-galactose was dissolved in water and then stored for different durations (for 0, 40, 80, 160, 320 minutes as well as 12 and 24 h). After storage D-galactose was mixed with the PA-IL solution and used to incubate human respiratory epithelial tissue samples as described previously.

PA-IL (lectin A, Lec A), sequence (Q05097 whole entry): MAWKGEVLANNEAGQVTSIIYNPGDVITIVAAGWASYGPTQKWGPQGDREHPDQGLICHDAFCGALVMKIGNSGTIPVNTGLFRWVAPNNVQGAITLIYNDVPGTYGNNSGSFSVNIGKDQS

## O=C[C@H](O)[C@@H](O)[C@@H](O)[C@H](O)CO [D-galactose]
0.0375 mM D-galactose stored 80 minutes in water, FIG. 8
  PA-IL lectin binding at the cilia of human respiratory epithelia in presence of D-galactose: significantly reduced, but not completely abolished
After 80 minutes storage time in aqueous solution
  PA-IL blocking activity of aqueous D-galactose solution: nearly abolished
Freshly dissolved 0.0375 mM D-galactose, time point 0, FIG. 7
  PA-IL lectin binding at the cilia of human respiratory epithelia in presence of D-galactose: abolished
Freshly prepared solution
  PA-IL blocking efficacy of aqueous D-galactose solution: significant blocking activity
Storage in aqueous solution
  period of storage in aqueous solution over which PA-IL blocking efficacy is lost: approximately 80 minutes
